For one assay, the target named is T1, Cytochrome P450 1A2 (Homo sapiens, UniProt P05177).
T1 sequence (P05177 whole entry): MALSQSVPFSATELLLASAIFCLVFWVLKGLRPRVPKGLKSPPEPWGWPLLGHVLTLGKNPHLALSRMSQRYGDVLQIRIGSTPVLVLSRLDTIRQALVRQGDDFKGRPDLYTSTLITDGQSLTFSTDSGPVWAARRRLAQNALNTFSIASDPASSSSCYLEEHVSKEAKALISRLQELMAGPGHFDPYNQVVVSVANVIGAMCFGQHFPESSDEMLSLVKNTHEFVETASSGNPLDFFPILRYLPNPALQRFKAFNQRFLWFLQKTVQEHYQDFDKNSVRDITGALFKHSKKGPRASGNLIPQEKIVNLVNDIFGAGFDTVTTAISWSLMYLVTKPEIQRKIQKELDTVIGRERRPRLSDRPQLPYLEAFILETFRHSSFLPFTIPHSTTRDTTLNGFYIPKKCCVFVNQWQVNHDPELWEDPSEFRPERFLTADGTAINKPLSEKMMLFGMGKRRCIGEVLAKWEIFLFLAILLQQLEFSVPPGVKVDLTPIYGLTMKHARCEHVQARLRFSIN

The target of another assay is Cytochrome P450 2C9 (Homo sapiens, UniProt P11712).
Sequence of Cytochrome P450 2C9 (P11712 whole entry): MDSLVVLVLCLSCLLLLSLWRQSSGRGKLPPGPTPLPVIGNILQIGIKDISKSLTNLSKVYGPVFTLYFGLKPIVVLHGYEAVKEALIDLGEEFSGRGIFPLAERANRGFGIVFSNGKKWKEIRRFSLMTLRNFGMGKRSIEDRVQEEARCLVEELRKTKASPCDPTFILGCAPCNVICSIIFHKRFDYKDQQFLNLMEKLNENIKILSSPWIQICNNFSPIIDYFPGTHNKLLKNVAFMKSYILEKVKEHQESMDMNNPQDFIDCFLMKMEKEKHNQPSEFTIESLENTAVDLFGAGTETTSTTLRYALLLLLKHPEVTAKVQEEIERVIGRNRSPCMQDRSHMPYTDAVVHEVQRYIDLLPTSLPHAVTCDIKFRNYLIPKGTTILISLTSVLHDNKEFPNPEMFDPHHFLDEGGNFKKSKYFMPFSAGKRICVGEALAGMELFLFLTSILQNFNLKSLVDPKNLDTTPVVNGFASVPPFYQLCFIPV
The target of another assay is T2, Androgen receptor (Rattus norvegicus, UniProt P15207).
T2 sequence (P15207 whole entry): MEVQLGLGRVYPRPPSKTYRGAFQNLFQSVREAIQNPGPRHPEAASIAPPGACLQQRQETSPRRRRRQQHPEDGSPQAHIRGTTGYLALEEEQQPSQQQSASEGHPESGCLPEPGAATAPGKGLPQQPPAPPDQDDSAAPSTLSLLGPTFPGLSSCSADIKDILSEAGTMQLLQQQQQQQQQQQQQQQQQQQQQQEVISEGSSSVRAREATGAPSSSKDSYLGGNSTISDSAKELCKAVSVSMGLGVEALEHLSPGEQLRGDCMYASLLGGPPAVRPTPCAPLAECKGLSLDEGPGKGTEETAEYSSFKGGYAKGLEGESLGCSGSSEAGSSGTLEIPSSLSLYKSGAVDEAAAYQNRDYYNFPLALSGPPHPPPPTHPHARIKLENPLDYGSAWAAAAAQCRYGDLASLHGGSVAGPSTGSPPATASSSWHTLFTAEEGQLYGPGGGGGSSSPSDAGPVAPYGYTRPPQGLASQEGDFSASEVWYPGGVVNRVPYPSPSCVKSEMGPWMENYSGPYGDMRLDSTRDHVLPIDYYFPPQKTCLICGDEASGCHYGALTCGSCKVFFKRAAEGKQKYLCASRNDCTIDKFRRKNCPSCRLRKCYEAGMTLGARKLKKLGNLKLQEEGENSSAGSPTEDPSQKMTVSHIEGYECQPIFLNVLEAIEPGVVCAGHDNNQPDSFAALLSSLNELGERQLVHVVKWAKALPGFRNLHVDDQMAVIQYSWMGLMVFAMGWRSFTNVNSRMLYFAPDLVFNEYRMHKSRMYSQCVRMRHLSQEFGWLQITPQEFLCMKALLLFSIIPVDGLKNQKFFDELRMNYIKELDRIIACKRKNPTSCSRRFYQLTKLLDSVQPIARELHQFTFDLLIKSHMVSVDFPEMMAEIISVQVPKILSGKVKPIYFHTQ

For another assay, the target named is Cytochrome P450 2C19 (Homo sapiens, UniProt P33261).
Sequence of Cytochrome P450 2C19 (P33261 whole entry): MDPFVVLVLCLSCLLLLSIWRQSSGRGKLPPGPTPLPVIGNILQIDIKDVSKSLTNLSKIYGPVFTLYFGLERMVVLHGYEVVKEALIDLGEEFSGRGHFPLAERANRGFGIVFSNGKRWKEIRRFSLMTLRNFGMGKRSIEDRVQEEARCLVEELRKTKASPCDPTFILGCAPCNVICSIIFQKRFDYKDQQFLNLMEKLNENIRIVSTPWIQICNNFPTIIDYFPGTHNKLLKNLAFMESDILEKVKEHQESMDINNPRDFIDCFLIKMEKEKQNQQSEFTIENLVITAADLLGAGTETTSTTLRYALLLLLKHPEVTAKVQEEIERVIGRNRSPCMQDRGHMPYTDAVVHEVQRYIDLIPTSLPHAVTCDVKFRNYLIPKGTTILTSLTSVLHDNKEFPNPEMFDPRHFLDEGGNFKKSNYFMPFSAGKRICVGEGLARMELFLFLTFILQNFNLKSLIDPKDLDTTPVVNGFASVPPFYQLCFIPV

As usually defined, the IC50 is the concentration that inhibits the measured activity by half. A higher IC50 goes with weaker potency. What is called Ki is a measure of affinity in units of concentration, obtained from inhibition or displacement. A higher Ki goes with a looser hold on the target.

As to `c1ccc(Cn2ccnc2)cc1`, the IC50 on Cytochrome P450 1A2 was 200 nM.

`CN(CCOc1ccc(C[C@H](Nc2ccccc2C(=O)c2ccccc2)C(=O)O)cc1)c1ccccn1` gave an IC50 against Cytochrome P450 2C9 of 4 µM.

Molecule `O=c1[nH]c2ccccc2c2ccccc12` yielded an IC50 at Cytochrome P450 1A2 of 16 nM.

On Cytochrome P450 1A2, `CC(=O)Nc1ccc2c(c1)Cc1ccccc1-2` [2-ACETYLAMINOFLUORENE] registered an IC50 of 16 nM.

As to `CC(C)(c1ccc(O)cc1)c1ccc(O)cc1` [BISPHENOL A], on Androgen receptor, half-maximal inhibition (IC50) was put at 33.8 µM and the affinity, expressed as Ki, was 22.5 µM.

As to `CC(N)Cc1c[nH]c2ccc(OCc3cccs3)cc12` (stereo not given) [BW-723C86], at Cytochrome P450 1A2, it took 874 nM to reach half-maximal inhibition (IC50).

With `c1ccc2c(c1)Nc1ccccc1S2` [PHENOTHIAZINE], at Cytochrome P450 1A2, the half-maximal inhibitory concentration (IC50) came to 16 nM.

For the molecule `COc1cc([C@@H]2c3cc4c(cc3[C@H](O)[C@H]3COC(=O)[C@H]23)OCO4)cc(OC)c1OC` [PODOFILOX], the IC50 on Cytochrome P450 2C19 came out at 5 µM; against Cytochrome P450 2C9, 4 µM.

(Values after ChEMBL document CHEMBL1909046, “DrugMatrix in vitro pharmacology data”.)
